On the set-up of series [1]: species or system human. To be noted: in vivo. The text has this:
Blood D-serine levels and D-asparagine levels correlate more strongly with glomerular filtration rate than the conventional marker of creatinine. […] In healthy persons without presence of disease, blood D-serine level is kept to within a very narrow range of about 1 to 2% of total serine, whereas its presence in urine reaches 30 to 60%. […] Moreover, in healthy persons without presence of disease, blood D-asparagine level is kept to within a very narrow range of about 0.1 to 0.6% of total asparagine, whereas its presence in urine reaches 20 to 50%.

The conditions of series [2]: human, in vivo. An excerpt: The test protocol was approved by the ethics committee of the national research and development agency: National Institutes of Biomedical Innovation, Health and Nutrition, and written informed consent was obtained from all of the test subjects.
[formula] • [UD-Ser represents urine D-serine level, PD-Ser represents blood D-serine level, UCre represents urine creatinine level and PCre represents blood creatinine level.]
A retrospective study was used for primary aldosteronism (PA), myeloma kidney […], diabetic nephropathy (DM) and IgA nephropathy (IGAN), from a cohort of kidney disease patients admitted to the Department of Nephrology, Osaka University Hospital for diagnosis and/or treatment from 2016 to 2017. Since IgA nephropathy test subjects had blood pressure above the reference range, they were given an angiotensin II receptor antagonist (ARB) as an antihypertensive drug. Separately, 15 healthy volunteers were recruited as non-kidney disease subjects by the National Institutes of Biomedical Innovation, Health and Nutrition. The test protocol was approved by the ethics committee of each facility, and written informed consent was obtained from all of the patients.
Sample preparation from human blood plasma and urine was carried out as follows: First a 20-fold volume of methanol was added to and completely mixed with the blood plasma. After centrifugation, 10 μL of supernatant obtained from the methanol homogenate was transferred to a brown tube and dried under reduced pressure. To the residue there were added 20 μL of 200 mM sodium borate buffer (pH 8.0) and 5 μL of fluorescent labeling reagent (40 mM 4-fluoro-7-nitro-2,1,3-benzooxadiazole (NBD-F) in anhydrous MeCN), and the mixture was then heated at 60° C. for 2 minutes. The reaction was suspended by addition of 75 μL of aqueous 0.1% TFA (v/v), and 2 μL of the reaction mixture was supplied to two-dimensional HPLC.
The amino acid optical isomers were quantified using the following two-dimensional HPLC system. NBD derivatives of the amino acids were separated and eluted using a reversed-phase column (KSAA RP, 1.0 mm i.d.×400 mm; Shiseido Corp.), in the mobile phase (5 to 35% MeCN, 0 to 20% THF, 0.05% TFA). The column temperature was 45° C. and the mobile phase flow rate was 25 μL/min. The separated amino acid fraction was separated off using a multi loop valve, and optically resolved in a continuous manner with a chiral column (KSAACSP-001S, 1.5 mm i.d.×250 mm; Shiseido Corp.). The mobile phase used was a MeOH/MeCN mixed solution containing citric acid (0 to 10 mM) or formic acid (0 to 4%), according to the amino acid retention. NBD-amino acids were detected by fluorescence detection at 530 nm using excitation light of 470 nm. The NBD-amino acid retention time was identified from standard amino acid optical isomers and quantified by a calibration curve.
The blood urine D-serine level and blood urine D-asparagine level and creatinine level were calculated by substitution into the following formulas.
[formula] • [where • UD-Ser represents the level of D-serine in the urine, • PD-Ser represents the level of D-serine in the blood, • UCre represents the level of creatinine in the urine, and • PCre represents the level of creatinine in the blood]
[formula] • [where • UD-Asn represents the level of D-asparagine in the urine, • PD-Asn represents the level of D-asparagine in the blood, • UCre represents the level of creatinine in the urine, and • PCre represents the level of creatinine in the blood] Evaluation and Assessment of Pathology

Series [3] in a line: D-serine excretion rate monitored before and after therapeutic intervention in a systemic lupus erythematosus patient. The note with it: SLE patient. It counts as in vivo, human. As to the method: After obtaining written informed consent from a person admitted to Osaka University Hospital with systemic lupus erythematosus, with ethical approval from the same University, their blood and urine were periodically sampled. The values rapidly worsened, with serum creatinine increasing from a level of 0.57 mg/dL 90 days before admission to 11.68 mg/dL and urine protein concentration increasing from 0.5 g/g Cre to 4.0 g/g Cre, while blood pressure was 122/65 mmHg, HR was 64 bpm, percutaneous arterial oxygen saturation was 100% (indoor air) and body temperature was 36.5° C. Mouth ulcers, alopecia and retinal hemorrhage were also noted, but no abnormal lung sounds, heart sounds or lower extremity edema was observed. Rapidly progressive glomerulonephritis was suspected in clinical testing, with blood hemoglobin of 4.6 g/dL, normal level complement of C3: 88 mg/dL and C4: 21 mg/dL, positive anti-dsDNA antibody of 13.0 IU/mL1, and P-ANCA of 182.0 U/mL, and therefore plasma exchange (PE) sessions were continued, and kidney biopsy was performed. Crescent-shaped cells were found in 79% of the glomeruli, fibrous crescent-shaped cells were found in 13%, and the glomerular capillaries were thickened with foam and spikes, although no glomerulosclerosis was observed. […] Tubular atrophy was localized and moderate. In immunofluorescent staining, the granular glomerular capillary walls were positive overall for IgG, IgA, IgM, C3, C4 and C1q. Diagnosis was latent ANCA-related crescent-shaped glomerular nephritis, with lupus nephritis class V. Treatment was by prednisolone pulse therapy (3 days, 1 g), followed by oral prednisolone (40 mg/day), intermittent pulse intravenous cyclophosphamide therapy (500 mg/m^2) and mycophenolate mofetil (MMF, 500 mg/day). Eight series of plasma exchange was also carried out. In response to this treatment, the serum creatinine level fell to 0.72 mg/dL, but the urine protein level persisted. […] The harvested blood and urine samples were prepared in the same manner as Example 1, and the D-serine was quantified while also calculating the D-serine excretion rate.

With `NC(=O)C[C@@H](N)C(=O)O` [D-asparagine], the excreted in series [1] is 50-80%. For the same compound, in series [2], the “logarithm of reference values of excretion rate” value is reported as 3.95-4.37; the “mean logarithmic value of excretion rate” value stood at 4.16; the “reference values of excretion rate, mean with standard deviation of ±1.96” value is 51.65-78.74%.
Turning to `N[C@H](CO)C(=O)O` [D-serine], the D-serine excretion rate in series [3] (after 48 hours (so in the source)) was found to be 41.7%; in series [3] (after 8 days) it was 0; in series [3] (after 12 days), 0; in series [3] (after 16 days) it was 0; in series [3] (after 22 days), 0; in series [3] (after 29 days), 58.9%. The values for the D-serine excretion rate in series [3] (after 34 days) and in series [3] (immediately after start of treatment) were 87.6% and 0, respectively. Moreover, in series [1], the excreted is on record as 50-80%. The “logarithm of reference values of excretion rate” value in series [2] is reported as 3.75-4.50. Further, in series [2], the “mean logarithmic value of excretion rate” value was 4.12. Also, in series [2], the “reference values of excretion rate, mean with standard deviation of ±1.96” value is 42.46-89.66%.
Turning to `NC(=O)C[C@H](N)C(=O)O` [L-asparagine], the “reabsorbed in the renal tubules” value in series [1] was “about 99%”.
With `N[C@@H](CO)C(=O)O` [L-serine], the “reabsorbed in the renal tubules” value in series [1] is given as “about 99%”.

Values taken from patent US12480954B2, “Method for assisting evaluation of condition of kidneys, system for evaluating condition of kidneys, and program for evaluating condition of kidneys” (Kagami Inc., priority 2019, dated 2025).
